Measured values: patent US20260327211A1, “MODULATORS OF A POTASSIUM CHANNEL AND OF TRPV1 CHANNEL AND USES THEREOF” (Bsense Bio Therapeutics Ltd., priority 2023, published 2026)
Read-outs that look alike come from different tables or passages of the source.

Columns and labels:
hTRPV1 = target: T1, hTRPV1 (Homo sapiens, UniProt Q8NER1); experiment: TRPV1 HCS, Fluo-8 calcium flux, capsaicin activation, CHO cells expressing hTRPV1; type: cell-based
T1 construct: CDS of NM_080704.4, inserted into the multiple cloning site of pcDNA3.1(+); host or cells: CHO/hKv7.2/3
Method: Cell culture: Chinese hamster ovary (CHO) cell-line cells with constitutive expression of human hTRPV1 channels (B'SYS GmbH, Switzerland) were cultured in F-12 nutrient mixture (Biological Industries) supplemented with 10% fetal bovine serum (Biological Industries) and 1% penicillin-streptomycin (Biological Industries) in a humidified 5% CO2 incubator at 37° C. To maintain the stable expression of hTRPV1, antibiotic selection (G418 500 μg/ml) was applied.
High content screen (HCS) using Fluo-8 No Wash Calcium flux Assay Kit: Fluo-8 No Wash Calcium Assay Kit (Abcam, ab112129) was used with CHO stably or transiently expressing TRPV1 to screen compounds against the hTRPV1 ion channel target. The cells were pre-loaded with Fluo-8AM which is membrane permeable. The AM groups of the Fluo-8AM were then being cleaved by intracellular esterase, trapping the Fluo8 in the cell. […] The relative fluorescence signal was calculated following background subtraction, comparing the fluorescence at each time point to its maximal level measured following Ionomycin application in the end.
According to optimization process to achieve uniform and consistent screening condition of molecules the following protocol was established: Cells were seeded in 384-well, black-walled, clear-bottomed, at a density of 5,000 cells per well 24 h before the assay conductance and incubated overnight in their normal growth medium. On the experiment day the medium was replaced in each well with HBSS, HEPES, and compound/vehicle (0.2% DMSO). Dye solution (prepared according to the manufacturer) was added to the wells and plates are incubated for 1.5 h light-protected in room temperature. The Tecan Spark plate reader injectors were then primed with capsaicin and Ionomycin for channel activation and data normalization, respectively. […] To calculate IC50 values, the data was fitted to sigmoidal regression line using Prism GraphPad. The fitting was constrained to a minimum of 0 and a maximal response of about 1 unless a different maximal response could be identified.

[1] = Log D, 1-octanol/buffer shake flask; type: physicochemical; settings: pH 7.4
Procedure, shortened: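 Compound from a 10 mM DMSO stock was partitioned between mutually saturated 1-octanol and 0.1 M phosphate buffer by shaking for 1 h at room temperature, then centrifuged. Each phase was diluted and quantified by LC/MS/MS. Log D came from the ratio of dilution- and internal-standard-corrected peak areas.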

hERG = hERG (Homo sapiens, UniProt Q12809); experiment: hERG HCS, FLIPR potassium assay, CHO/hERG; type: cell-based; design: host or cells: CHO; settings: for hERG IC50 (inhibition in parentheses): at highest concentration shown
Method: Cell culture: Chinese hamster ovary (CHO) cell-line cells with a constitutive expression of human hERG channels (B'SYS GmbH, Switzerland) were cultured in F-12 nutrient mixture (Biological Industries) supplemented with 10% fetal bovine serum (Biological Industries) and 1% penicillin-streptomycin (Biological Industries) in a humidified 5% CO2 incubator at 37° C. To maintain the hERG expression stability of the CHO cell line, antibiotics selection (G418 […] and Hygromycin 500) was applied.
FLIPR Potassium Assay Kit: The FLIPR Potassium Assay Kit (R8222 FLIPR Potassium Assay Explorer Kits, Molecular Devices) was used with CHO/hERG cell line, for screening compounds against the hERG ion-channel off-target, as detailed hereinabove.
According to optimization process, to achieve a uniform and consistent screening condition of molecules, the following protocol was established: Cells were seeded in 384-well, black-walled, clear-bottomed, at a density of 7,500 cells per well 24 hours before the assay conductance and incubated overnight in their normal growth medium. On the experiment day the medium was replaced with HBSS, HEPES, and the tested compound/vehicle (0.2% DMSO). Dye solution (prepared according to the manufacturer) was added to the wells and plates were incubated for 1.5 hour light-protected in room temperature. The Tecan Spark plate-reader injectors were primed with Tl+(1 mM Tl2SO4) or Tl++K+(1 mM Tl2SO4; 10 mM K2SO4) for channel activation and data correction. […]. To calculate IC50 values, the data was fitted to sigmoidal regression using Prism GraphPad.

[2] = Metabolite identification (Met-ID), human hepatocytes; type: in vitro ADME
Method: Cell culture and incubation: Cryopreserved hepatocyte cells, from human and rat sources, were purchased from commercial sources or in-house production, and were cultured in Williams' Medium E supplemented with glutamine and HEPES, in a humidified 5% CO2 incubator at 37° C., to a cell density of […]. Then, solutions of test compounds at a concentration of 10 μM, or 7-Ethoxycoumarin, as a positive control, at a concentration of 30 μM, in Eagle's Minimum Essential Medium, Catalog No. 30-2003 (ATCC) supplemented with 20% fetal bovine serum, were introduced and the mixture was incubated for 120 minutes, or other specified time points.
The samples were analyzed for metabolites using an LC-MS method developed on […] and PDA systems. Comparative analyses of mass spectra and ion fragmentation between the parent compound and its metabolites were carried out, and metabolic profiling was determined using the mass spectrometric and/or PDA (UV) response. Hypothetical structures of metabolites and their metabolic pathways were proposed.

[3] = cells expressing TRPV1, read-out: TRPV1 IC50
[4] = 1-octanol/phosphate buffer, read-out: LogD

Chain of hERG (Q12809 whole entry): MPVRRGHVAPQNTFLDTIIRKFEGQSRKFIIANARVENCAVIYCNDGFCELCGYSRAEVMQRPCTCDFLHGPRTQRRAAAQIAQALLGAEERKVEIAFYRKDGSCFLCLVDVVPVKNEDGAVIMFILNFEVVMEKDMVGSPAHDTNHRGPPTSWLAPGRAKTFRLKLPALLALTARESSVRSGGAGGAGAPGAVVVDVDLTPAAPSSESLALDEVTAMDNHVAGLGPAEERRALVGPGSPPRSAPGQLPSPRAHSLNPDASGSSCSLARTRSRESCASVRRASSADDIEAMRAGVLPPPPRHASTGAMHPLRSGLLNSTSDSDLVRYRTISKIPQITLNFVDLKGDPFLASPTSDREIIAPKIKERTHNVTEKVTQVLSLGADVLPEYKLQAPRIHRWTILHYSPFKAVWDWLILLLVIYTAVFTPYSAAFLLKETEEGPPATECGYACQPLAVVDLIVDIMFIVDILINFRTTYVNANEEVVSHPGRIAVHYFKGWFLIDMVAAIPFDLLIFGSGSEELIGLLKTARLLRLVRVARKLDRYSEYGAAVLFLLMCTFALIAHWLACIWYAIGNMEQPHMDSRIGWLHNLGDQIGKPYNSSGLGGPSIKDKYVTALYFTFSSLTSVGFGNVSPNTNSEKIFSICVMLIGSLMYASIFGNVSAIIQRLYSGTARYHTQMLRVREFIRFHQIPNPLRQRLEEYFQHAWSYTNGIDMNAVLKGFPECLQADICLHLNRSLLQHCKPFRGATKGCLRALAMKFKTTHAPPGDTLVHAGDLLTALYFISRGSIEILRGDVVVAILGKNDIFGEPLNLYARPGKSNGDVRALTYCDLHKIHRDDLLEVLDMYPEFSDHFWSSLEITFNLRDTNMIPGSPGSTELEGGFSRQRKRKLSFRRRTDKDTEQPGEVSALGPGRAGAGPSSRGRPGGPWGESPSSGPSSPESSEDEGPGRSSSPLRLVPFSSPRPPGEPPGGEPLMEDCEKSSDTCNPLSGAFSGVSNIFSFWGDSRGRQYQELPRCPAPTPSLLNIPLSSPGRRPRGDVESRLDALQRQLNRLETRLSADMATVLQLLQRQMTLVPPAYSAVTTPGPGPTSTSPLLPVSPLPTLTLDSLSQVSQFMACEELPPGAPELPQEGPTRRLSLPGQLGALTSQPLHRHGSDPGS
T1 sequence (Q8NER1 whole entry): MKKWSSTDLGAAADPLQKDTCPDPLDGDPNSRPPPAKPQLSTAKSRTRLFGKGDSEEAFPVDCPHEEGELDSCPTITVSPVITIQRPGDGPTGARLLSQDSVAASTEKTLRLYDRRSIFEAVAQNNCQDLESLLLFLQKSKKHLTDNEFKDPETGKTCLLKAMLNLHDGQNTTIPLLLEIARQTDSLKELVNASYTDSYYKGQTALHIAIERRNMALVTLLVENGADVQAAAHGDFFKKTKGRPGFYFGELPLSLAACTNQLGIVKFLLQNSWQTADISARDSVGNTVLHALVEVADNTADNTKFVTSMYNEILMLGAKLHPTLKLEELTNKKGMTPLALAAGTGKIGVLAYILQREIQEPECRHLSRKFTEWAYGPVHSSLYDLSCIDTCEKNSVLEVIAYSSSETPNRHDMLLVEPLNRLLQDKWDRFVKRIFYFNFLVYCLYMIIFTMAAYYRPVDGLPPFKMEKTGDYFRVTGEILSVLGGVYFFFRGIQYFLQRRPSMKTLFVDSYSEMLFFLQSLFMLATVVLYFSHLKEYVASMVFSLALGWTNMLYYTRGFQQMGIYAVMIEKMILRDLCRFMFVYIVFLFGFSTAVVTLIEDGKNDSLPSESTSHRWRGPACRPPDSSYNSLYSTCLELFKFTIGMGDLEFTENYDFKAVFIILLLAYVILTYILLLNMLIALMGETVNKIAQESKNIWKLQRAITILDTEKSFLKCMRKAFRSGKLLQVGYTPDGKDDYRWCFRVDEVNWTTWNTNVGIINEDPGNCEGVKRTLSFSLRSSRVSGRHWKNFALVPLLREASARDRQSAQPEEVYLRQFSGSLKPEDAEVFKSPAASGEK

SMILES	IC50 (hTRPV1)	IC50 (hTRPV1; [3])	logD [1, 4]	IC50 (hERG; Table 1, read-out: hERG IC50)	hERG IC50 (inhibition in parentheses) (hERG; Table 1)	IC50 (hERG; hERG IC50 HCS)	Human Hepatocytes MetID (glutathione conjugation) ([2]; human hepatocytes)	further results
COC[C@@H](CO)NC(=O)Cc1cc(Sc2c(Cl)cc(F)cc2C(C)C)ccc1F [Compound 415]	7.8 µM	7.7 µM	4.25	> 23 µM	0%	–	–	–
Cc1cn(-c2ccc(F)c(CC(=O)NCC(C)(C)O)c2)c2c(Cl)cc(Cl)cc12 [Compound 421]	1.8 µM	–	5.45	–	–	> 2.5 µM	–	–
O=C(Cc1cc(-n2cc(Cl)c3cc(Cl)cc(Cl)c32)ccc1F)NCCO [Compound 627]	–	1.9 µM	–	> 2.5 µM	0%	> 2.65 µM	–	IC50 (hTRPV1; read-out: CAP hTRPV1 IC50 HCS): 1.9 µM
O=C(Cc1cncc(-n2cc(Cl)c3cc(Cl)cc(Cl)c32)c1)N[C@@H]1COC[C@H]1O [Compound 661]	19 µM	19.3 µM	3.55	> 16.6 µM	0%	18.7 µM	–	IC50 (hTRPV1; read-out: CAP hTRPV1 IC50 HCS): 19.1 µM; Metabolites M1-M7 (glutathione conjugation), share of identified metabolites [2]: 2.09%; hERG activity (hERG): no measurable activity at any concentration tested
O=C(Cc1nccc(-n2cc(Cl)c3cc(Cl)cc(Cl)c32)n1)NC1COCC1O (centres unmarked) [Compound 760]	–	–	3.28	–	–	–	did not indicate the presence of glutathione conjugation and None	hERG activity (hERG): lacks any effect on hERG and Kv7.3/4/5 activity below 10 μM; IC50 (hERG; human, cho/herg cells, Thallium ions (Tl+) fluorescence, read-out: hERG EC50): 33.4 µM
O=C(Cc1ccnc(-n2cc(Cl)c3cc(Cl)cc(Cl)c32)n1)N[C@@H]1COC[C@H]1O [Compound 820]	–	–	3.82	–	–	–	did not indicate the presence of glutathione conjugation and None	–
O=C(Cc1cc(-n2cc(C(F)(F)F)c3cc(Cl)cc(Cl)c32)ncn1)NCCO [Compound 843]	–	–	3.75	–	–	–	did not indicate the presence of glutathione conjugation	Human Hepatocytes MetID ([2]; human hepatocytes): 0.2%

More lines, main results first:

IC50 (hTRPV1)	IC50 (hTRPV1; [3])	logD [1, 4]	SMILES	IC50 (hERG; Table 1, read-out: hERG IC50)	hERG IC50 (inhibition in parentheses) (hERG; Table 1)	IC50 (hERG; hERG IC50 HCS)	Human Hepatocytes MetID (glutathione conjugation) ([2]; human hepatocytes)	further results
–	8 µM	4.08	CC(C)c1cc(Cl)cc(Cl)c1C(=O)c1ccc(F)c(CC(=O)NCC(C)(C)O)c1 [Compound 417-4]	> 35 µM	0%	–	–	–
–	2.1 µM	–	Cc1cn(-c2ccc(F)c(CC(=O)NCC(C)(C)O)c2)c2c(Cl)cc(Cl)cc12 [Compound 421-6]	> 2.5 µM	0%	–	–	logD [1]: 5.47
8 µM	–	4.66	CC(C)c1cc(Cl)cc(Cl)c1Nc1ccc(F)c(CC(=O)NCC(C)(C)O)c1 [NH91, reference compound]	–	–	–	–	–
